Measurements: PubChem BioAssay (NCI)
Where “and” joins values, the source holds several entries; their conditions need not be identical. Identical values can stand only once.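 Tested at 5 concentrations; 48 h exposure; 96-well plates; endpoints linearly interpolated, else capped at highest concentration. GI50: concentration for 50% inhibition of growth. At the TGI there is no net growth.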

How the values were obtained:
Assay in all cases: NCI anticancer screen, dose series, 48 h
HOP-92 NSCLC = test system: HOP-92 NSCLC
A549 NSCLC = test system: A549 NSCLC
MALME-3M melanoma = test system: MALME-3M melanoma
ACHN renal = test system: ACHN renal
SNB-75 CNS = test system: SNB-75 CNS
HCT-15 colon = test system: HCT-15 colon
A498 renal = test system: A498 renal
K-562 leukemia = test system: K-562 leukemia
IGROV1 ovarian = test system: IGROV1 ovarian
NCI/ADR-RES ovarian = test system: NCI/ADR-RES ovarian

Structure (SMILES)	GI50 (HOP-92 NSCLC) [µM]	TGI (HOP-92 NSCLC) [µM]	GI50 (A549 NSCLC)	TGI (A549 NSCLC)	GI50 (MALME-3M melanoma)	GI50 (ACHN renal)	TGI (ACHN renal)	GI50 (SNB-75 CNS) [µM]	TGI (SNB-75 CNS) [µM]	TGI (HCT-15 colon)	TGI (A498 renal) [µM]	TGI (K-562 leukemia) [µM]	TGI (MALME-3M melanoma) [µM]	TGI (IGROV1 ovarian) [µM]	GI50 (NCI/ADR-RES ovarian) [µM]	TGI (NCI/ADR-RES ovarian) [µM]	GI50 (K-562 leukemia) [µM]	GI50 (IGROV1 ovarian) [µM]	GI50 (HCT-15 colon) [µM]	GI50 (A498 renal) [µM]
COc1ccc(S(=O)(=O)N2CCN(C(=O)c3ccc(-c4ccccc4)cc3)CC2C(=O)NO)cc1 (configuration not stated)	> 100	> 100	8.47 µM and 30.7 µM	12.5 µM and 82.2 µM	2.25 µM and 17.3 µM	3.28 µM and 20.6 µM	12.5 µM and 99.5 µM	3.66	10.3	12.5 µM and > 100 µM										
CCC(=O)c1c(NOC2OCC(OC(C)=O)C(OC(C)=O)C2OC(C)=O)nc(OC)n(C)c1=O (configuration not stated)		> 100		> 100 µM			> 100 µM		> 100	> 100 µM	> 100	> 100	> 100	> 100						
COc1cc2c(c(OC)c1OC)-c1ncc3c(OC)c(OC)c(OC)cc3c1C2	52.1	> 100	27.7 µM	> 100 µM		31.2 µM	> 100 µM	> 100	> 100	> 100 µM		50.3		93	15.6	38	19.2	34.1	28.6	
O=S(=O)(NC1=NCCN1C(=S)SN1CCn2c1nsc2=S)c1cccc2ccccc12			35.2 µM	> 100 µM	12.3 µM	27.5 µM	> 100 µM	24.3	> 100	> 100 µM	78	44.6	57.4	32.6	45.5	> 100	16.1	10	26.3	29.5
CCOC(=O)C(Cc1c[nH]c2c(N(CCO)CCO)cccc12)(NC(C)=O)C(=O)OCC	> 1000	> 1000	> 1000 µM	> 1000 µM	202 µM	119 µM	> 1000 µM	50.9	249	> 1000 µM		516	> 1000	> 1000	> 1000	> 1000	194	643	182	
Cc1nn[n-]n1.N.N.N.N.N.[Cl-].[Co+3]	> 100	> 100	> 100 µM	> 100 µM	> 100 µM	> 100 µM	> 100 µM	> 100	> 100	> 100 µM		> 100	> 100	> 100			> 100	> 100	> 100	
O=C(/C=C/c1ccccc1)C(Br)C(Br)c1ccccc1 (configuration not stated)			2.79 µM	9.3 µM		1.25 µM	2.57 µM	3.06	17.5		5.68	1.25			3.37	19	0.303			1.9
C#Cc1cccc(N2C(=O)c3c(c(-c4ccccc4)c(-c4ccc(Cc5ccc(-c6c(-c7ccccc7)c7c(c(-c8ccccc8)c6-c6ccccc6)C(=O)N(c6cccc(C#C)c6)C7=O)cc5)cc4)c(-c4ccccc4)c3-c3ccccc3)C2=O)c1		29		> 100 µM			> 100 µM		79.9	> 100 µM		> 100	> 100	45.2						
O=C1CC2C(=O)c3ccccc3CC2c2ccccc21 (configuration not stated)		> 100		> 100 µM			> 100 µM		75	> 100 µM	> 100	> 100	> 100	> 100						
O=C(O)c1ccc(NCn2nc(-c3ccccc3O)oc2=S)cc1	33.8	82.6	42.3 µM	> 100 µM		27.7 µM	72 µM			57.5 µM		> 100		> 100	62.7	> 100	40.7	> 100	24.9	
COc1ccc(N=NC(C(=O)c2ccccc2)C(=O)c2ccccc2)cc1				75 µM			86.1 µM		74.8	> 100 µM	> 100	> 100	97	> 100						
O=c1/c(=C/c2ccccc2[N+](=O)[O-])sc2nc3ccccc3n12		> 46.4		> 46.4 µM			> 46.4 µM		33.5	31.6 µM	> 41.6	> 46.4	> 46.4	> 46.4						
O=C(CCC(=O)Nc1ccc(Cl)c(Cl)c1)CC(=O)c1ccc(Br)cc1		> 100		> 100 µM			> 100 µM		> 100	> 100 µM	> 100	> 100	> 100	> 100						
CCc1ccc(NC(=O)NC(=O)c2ccccc2[N+](=O)[O-])cc1Oc1ncc(Cl)cn1		> 100		> 100 µM			> 100 µM			> 100 µM	9.1	> 100	> 100	> 100						
O=C(/C=C/C12c3ccccc3C(c3ccccc31)C1C(=O)NC(=O)C12)c1ccc(Cl)cc1Cl (configuration not stated)	1.5	3.3	2.23 µM	6.03 µM	1.71 µM	1.76 µM	3.15 µM	1.64	3.08	4.57 µM	3.3	10.9	3.12	4.27			2.57	1.97	1.9	1.82
COc1ccc(NC(=O)/C(=C/c2ccccc2)C(C)=O)cc1		29.6		54.2 µM			42.2 µM		21	40.8 µM	36.7	> 100	32.3	38.6						
Cc1[nH]nc(C(F)(F)F)c1N=NN(C)C		23.5		> 100 µM			18.9 µM			24.4 µM	> 100	11.9	38.3			23				
CCOC(=O)C1=C(Nc2ccc(Cl)cc2Cl)OCC1=O		> 100		> 100 µM			> 100 µM		> 100	> 100 µM		> 100	> 100	> 100						
